# In patent US5340829A, “Immunoregulatory agents” (priority 1992, dated 1994):
# “Also recorded” adds a separate entry of the source.
# Experiments:
# Human macrophages = assay: 3H-thymidine incorporation, LPS-stimulated macrophages (Experiment 17); format: cell-based; conditions: concentrations as high as 10^-5 M/L
# Protocol: Human macrophages were stimulated using LPS in vitro, and ^3 H-thymidine incorporation was measured.
# Human mononuclear cells = assay: PMA-stimulated superoxide production (Experiment 11); format: cell-based; conditions: concentrations as high as 10^-5 M/L; PMA stimulated normal cells
# From the text: Human mononuclear cells were studied for superoxide production in culture in the presence and absence of sorbinil. Superoxide production was stimulated in normal cells using the mitogen phorbol myristate acetate (PMA).
# DTH reaction in ears = assay: Histologic examination of DNFB-challenged ear tissue (Experiment 5); format: in vivo, mice
# Protocol: FIG. 16 depicts the ear of a primed mouse which has not been challenged with DNFB. The epidermis 22 is devoid of mononuclear infiltrate 28, as is the dermal compartment 24. A layer of cartilage 26 is located in the center of the ear. FIG. 17 represents the ear of a buffer-treated primed mouse which had been challenged 24 hours previously with DNFB. Note the pronounced edema in the dermal compartment of the skin 24 as well as the extensive mononuclear cell infiltrate (indicated by arrows 28) in both the dermis and epidermis. […] There were also fewer mononuclear cells 28 in the epidermis 22 as well.
# Normal mouse thymocytes = assay: 3H-thymidine incorporation, PHA plus IL-1 stimulated thymocytes (Experiment 12); format: cell-based; conditions: concentrations as high as 10^-6 M/L; PHA in the presence of preformed IL-1
# [1] = system: delayed-type hypersensitivity (DTH); assay: DTH ear swelling, comparison of sorbinil, tolrestat, WF-3681 and NSAIDs (Experiment 23, TABLE 5); format: in vivo, mice
# Protocol: Delayed type hypersensitivity, which involves the participation of T lymphocytes and macrophages, can be studied in vivo by exposing (or priming) a mammal to a novel antigen and then reexposing (or challenging) the primed animal to the same antigen four to seven days later. The classic DTH response includes symptoms of inflammatory response, induration and erythema, which peak at 24 to 48 hours after challenging and then decline slowly.
# Eight-week old female C57BL/6J mice (Jackson Labs) were divided into primed and unprimed groups. The five mice in the primed group were primed to 2,4-dinitrofluorobenzene (DNFB; Sigma Chemical Co., Grade 1, approx. 98%, Lot 129C-0065, No. d-6879) by painting their shaved ventral skins with 0.1 ml of 0.5% DNFB in ethanol:acetone (3:1). The five mice in the unprimed group were shaved and topically painted on their ventral skins with the ethanol:acetone (3:1) vehicle alone. The mice in both groups were challenged with DNFB four days later. A suitable patch of skin, the ear, was chosen for challenging. One ear was designated for challenging and the other to serve as a control. The thickness of each ear across the pinna was measured using micrometer calipers. The first measurements were taken four days after priming and are plotted as day 0 in FIG. 13. Next, each mouse was subjected to the following challenge regimen: one ear was challenged with one drop of 0.35% DNFB in olive oil, and the other (unchallenged control) ear was exposed to olive oil alone. The ear thicknesses (ET) of the challenged ear and the unchallenged ear were measured daily, and the swelling responses are plotted in FIG. 13 as: [formula]
# Three groups of eight-week old female C57BL/6J mice were primed to DNFB as previously described. […] Six hours later the first sets of ear measurements were taken, and one ear of each mouse was challenged.
# The Table has 4 columns, listing (left to right) each drug tested in column 1, drug concentrations in column 2, relative swelling in column 3, and effectiveness in column 4.
# [2] = system: swelling of popliteal lymph nodes; assay: Popliteal lymph node assay (Experiment 20); format: in vivo; conditions: Balb C mice injected in the foot pad with cells from C57BL6 mice
# Protocol: In vivo, popliteal lymph node assays were conducted on normal Balb C mice.
# [3] = system: thymocytes from normal mice; assay: Con A stimulated 3H-thymidine incorporation, thymocytes from normal mice in vitro (Experiment 18); format: cell-based; conditions: concentrations as high as 10^-5 M/L
smiles,measurement,setting,value
"O=C1NC(=O)[C@@]2(CCOc3ccc(F)cc32)N1 [Sorbinil, 4(S)-2,3-dihydro-6-fluorospiro-(4H-1-benzopyran-4,4'-imidazolidine)-2',5'-dione]",Incorporation of 3H-thymidine,Human macrophages,no effect
same,Production of superoxide,Human mononuclear cells,no effect
same,Edema of dermal compartment,"DTH reaction in ears; primed mouse challenged 24 hours previously with DNFB, vs buffer-treated",much less edematous
same,Mononuclear cell infiltration in challenged ears,DTH reaction in ears; sorbinil-treated vs challenged control mice,infiltration was reduced
same,Incorporation of 3H-thymidine,Normal mouse thymocytes,no effect
same,effectiveness (1 - R) (100%),"[1]; 6 μM, single dose after challenge",39%
same,effectiveness (1 - R) (100%),"[1]; 6 μM, single dose before challenge",32%
same,effectiveness (1 - R) (100%),[1]; concentration 6 μM,34%
same,effectiveness (1 - R) (100%),"[1]; concentration 6 μM, listed as sorbinil",about 30%
same,effectiveness (1 - R) (100%),[1]; concentration 10 μM,70%
same,Effect on DTH as measured by ear swelling (in words),"[1]; mouse, in vivo","strong and substantially identical inhibitory effect; also recorded: effective, as a single dose, when administered either before or after the antigenic challenge"
same,Swelling of popliteal lymph nodes,[2],no effect
same,3H-thymidine incorporation stimulated by Con A,[3],no effect
